Experimental data published in patent US20070293486A1, “Alpha-Keto Carbonyl Calpain Inhibitors” (SANTHERA PHARMACEUTICALS (SCHWEIZ) AG, priority 2004, published 2007).

Assays:
human μ-calpain = target: T1, human μ-calpain (Homo sapiens, UniProt P07384); assay: Enzymatic Calpain Inhibition Assay; format: biochemical; settings: enzymatic calpain I inhibition; read-out: Calp I IC50
T1 construct: purchased Calbiochem
T1 sequence (P07384 1-714): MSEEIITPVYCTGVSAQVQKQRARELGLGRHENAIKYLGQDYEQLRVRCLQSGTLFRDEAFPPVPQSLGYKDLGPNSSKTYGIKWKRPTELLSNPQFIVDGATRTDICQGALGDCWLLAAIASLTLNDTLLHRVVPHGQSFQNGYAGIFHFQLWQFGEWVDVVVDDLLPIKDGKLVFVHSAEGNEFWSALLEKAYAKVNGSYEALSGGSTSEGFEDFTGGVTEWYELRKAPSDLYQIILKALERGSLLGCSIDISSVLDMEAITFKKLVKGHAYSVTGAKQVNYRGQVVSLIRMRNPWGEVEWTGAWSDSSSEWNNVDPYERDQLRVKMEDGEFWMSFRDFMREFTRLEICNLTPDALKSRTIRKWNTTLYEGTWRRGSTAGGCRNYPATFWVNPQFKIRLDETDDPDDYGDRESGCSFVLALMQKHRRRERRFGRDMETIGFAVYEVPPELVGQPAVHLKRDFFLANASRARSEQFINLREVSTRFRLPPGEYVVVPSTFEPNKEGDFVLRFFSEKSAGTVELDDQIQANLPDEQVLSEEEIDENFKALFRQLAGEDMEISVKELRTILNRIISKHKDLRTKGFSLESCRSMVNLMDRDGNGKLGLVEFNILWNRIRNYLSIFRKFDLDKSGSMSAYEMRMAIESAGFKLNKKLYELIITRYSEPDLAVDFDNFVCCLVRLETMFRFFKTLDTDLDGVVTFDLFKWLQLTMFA
T1 sequence (P04632 1-268 partner): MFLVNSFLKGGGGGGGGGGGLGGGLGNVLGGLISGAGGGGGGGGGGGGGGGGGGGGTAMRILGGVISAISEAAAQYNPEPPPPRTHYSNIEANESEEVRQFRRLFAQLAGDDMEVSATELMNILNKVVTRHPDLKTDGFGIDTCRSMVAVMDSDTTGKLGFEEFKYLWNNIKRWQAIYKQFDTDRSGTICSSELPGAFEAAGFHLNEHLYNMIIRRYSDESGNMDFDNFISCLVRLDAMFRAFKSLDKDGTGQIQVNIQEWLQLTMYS
Method: The Ki value was also determined in some cases. These criteria were used to measure the inhibitory effect of the compounds (I) on calpain I, calpain II and cathepsin B.
The inhibitory properties of calpain inhibitors are tested in 100 μl of a buffer containing 100 mM imidazole pH 7.5, 5 mM L-Cystein-HCl, 5 mM CaCl2, 250 μM of the calpain fluorogenic substrate Suc-Leu-Tyr-AMC (Sigma) (Sasaki et al., J. Biol. Chem., 1984, 259, 12489-12949) dissolved in 2.5 μl DMSO and 0.5 μg of human μ-calpain (Calbiochem). The inhibitors dissolved in 1 μl DMSO are added to the reaction buffer. The fluorescence of the cleavage product 7-amino-4-methylcoumarin (AMC) is followed in a SPECTRAmax GEMINI XS (Molecular Device) fluorimeter at λex=360 nm and λem=440 nm at 30° C. during 30 min at intervals of 30 sec in 96-well plates (Greiner). The initial reaction velocity at different inhibitor concentrations is plotted against the inhibitor concentration and the IC50 values determined graphically.

[1] = tested on: cellular calpains in C2C12 myoblasts; assay: Calpain Inhibition Assay in C2C12 Myoblasts; format: cell-based; settings: read-out: Calp I IC50 Myoblast
Method: This assay is aimed at monitoring the ability of the substance to inhibit cellular calpains. C2C12 myoblasts are grown in 96-well plates in growth medium (DMEM, 20% foetal calf serum) until they reach confluency. The growth medium is then replaced by fusion medium (DMEM, 5% horse serum). 24 hours later the fusion medium is replaced by fusion medium containing the test substances dissolved in 1 μl DMSO. After 2 hours of incubation at 37° C. the cells are loaded with the calpain fluorogenic substrate Suc-Leu-Tyr-AMC at 400 μM in 50 μl of a reaction buffer containing 135 mM NaCl; 5 mM KCl; 4 mM CaCl2; 1 mM MgCl2; 10 mM Glucose; 10 mM HEPES pH 7.25 for 20 min at room temperature. The calcium influx, necessary to activate the cellular calpains, is evoked by the addition of 50 μl reaction buffer containing 20 μM of the calcium ionophore Br-A-23187 (Molecular Probes). The fluorescence of the cleavage product AMC is measured as described above during 60 min at 37° C. at intervals of 1 min. The IC50 values are determined as described above. Comparison of the IC50 determined in the enzymatic calpain inhibition assay to the IC50 determined in the C2C12 myoblasts calpain inhibition assay, allows to evaluate the cellular uptake or the membrane permeability of the substance.

20S Proteasome = target: T2, 20S Proteasome (Oryctolagus cuniculus, UniProt G1T4Q9); assay: 20S Proteasome Assay; format: biochemical; settings: Rabbit, read-out: 20S Prot IC50
T2 sequence (G1T4Q9 1-263): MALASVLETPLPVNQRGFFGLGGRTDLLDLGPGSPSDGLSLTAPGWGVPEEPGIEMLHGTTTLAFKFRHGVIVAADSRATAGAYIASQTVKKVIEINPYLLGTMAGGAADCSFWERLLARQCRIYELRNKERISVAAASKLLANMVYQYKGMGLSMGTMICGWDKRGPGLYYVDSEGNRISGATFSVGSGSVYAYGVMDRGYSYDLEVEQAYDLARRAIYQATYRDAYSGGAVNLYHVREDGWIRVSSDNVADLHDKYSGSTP
Method: 25 μl of a reaction buffer containing 400 μM of the fluorogenic substrate Suc-Leu-Leu-Val-Tyr-AMC (Bachem) are dispensed per well of a white microtiter plate. Test compounds dissolved in 0.5 μl DMSO are added. To start the reaction; 25 μl of reaction buffer containing 35 ng of enzyme (20S Proteasome, Rabbit, Calbiochem) are added. The increase in fluorescence (excitation at 360 nm; emission at 440 nm) is measured over 30 min at 30° C. at 30″. The IC50's are then determined from the slopes.

IC50 (human μ-calpain)	IC50 [1]	IC50 (20S Proteasome)	SMILES
38 nM	210 nM	160 nM	CCNC(=O)C(=O)[C@H](Cc1ccc(Cl)cc1)NC(=O)[C@@H](NC(=O)[C@H](Cc1ccccc1)NC(=O)CCCCC1CCS[S+]1[O-])C(C)C (stereo partly drawn) [Example 2]
30 nM	40 nM	40 nM	CCNC(=O)C(=O)C(Cc1ccc(OC)cc1)NC(=O)C(CC(C)C)NC(=O)C(Cc1cccc2ccccc12)NC(=O)CCCCC1CCSS1 (stereo not drawn) [Example 637]
